Source: patent US11214594B2, “Antimicrobial peptide having synergistic antibacterial effect with antibiotics on multidrug resistant bacteria, and use thereof” (priority 2016, dated 2022)
Like-named read-outs stand apart in the source and are kept apart here. Where a SMILES comes first, the peptide text is derived from it.

Assays:
P. aeruginosa = experiment: microbe, parasite or virus in culture; format: cell-based, Pseudomonas aeruginosa
Outline: (§1)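 MIC read-out = lowest peptide level with no bacterial proliferation. Strains diluted in MH medium to 2×10^6 CFU; peptide twofold serial dilutions in MH added 1:1 in microtiter wells.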

A. baumannii [1] = experiment: microbe, parasite or virus in culture; format: cell-based, Acinetobacter baumannii
Outline: as §1

MDRAB 12035 [2] = experiment: microbe, parasite or virus in culture; format: cell-based, Acinetobacter baumannii
Outline: as §1

MDRST 8007 = experiment: Minimal inhibitory concentration (MIC), single agent; format: cell-based, Salmonella typhimurium; conditions: agent alone
Outline: as §1

S. epidermidis = experiment: microbe, parasite or virus in culture; format: cell-based, Staphylococcus epidermidis
Outline: as §1

E. coli [3] = experiment: MIC of antibiotic during combined treatment with antimicrobial peptide; format: cell-based, Escherichia coli; conditions: for Antibiotic MIC, Erythromycin / Antibiotic MIC, Linezolid / Antibiotic MIC, Vancomycin: E. coli
Outline: (§2)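 Using MH broth, we determined combination MICs by titrating the antibiotic into wells and then repeating under the reverse dilution scheme.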

A. baumannii [4] = experiment: as above; format: cell-based, Acinetobacter baumannii; conditions: for Antibiotic MIC, Erythromycin / Antibiotic MIC, Linezolid / Antibiotic MIC, Vancomycin: A. baumannii
Outline: as §2

MDRAB 12035 [5] = experiment: as above; format: cell-based, Acinetobacter baumannii
Outline: (§3)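 Broth microdilution in MH medium; strains were diluted to 2×10^6 CFU per ml before plating. Peptide was serially diluted stepwise at 2:1 starting from its MIC, and MH-diluted antibiotic was then added to determine MIC. The reversed arrangement was also tested.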

E. coli [6] = format: cell-based, Escherichia coli; conditions: E. coli
Outline: as §3

MDREC 1229 = format: cell-based, Escherichia coli
Outline: as §3

A. baumannii [7] = experiment: MIC of antimicrobial peptide during combined treatment with antibiotic; format: cell-based, Acinetobacter baumannii
Outline: as §3

MDRAB 12035 [8] = experiment: as above; format: cell-based, Acinetobacter baumannii
Outline: as §3

[9] = combined with peptide at 1 μg/ml
[10] = combined with peptide at 2 μg/ml
[11] = combined with peptide at 4 μg/ml
[12] = combined with peptide at 6 μg/ml
[13] = combined with peptide at 8 μg/ml
[14] = combined with peptide at 16 μg/ml
[15] = combined with peptide at 32 μg/ml
[16] = combined with peptide at 64 μg/ml
[17] = peptide treatment concentration 1 μg/ml
[18] = peptide treatment concentration 2 μg/ml
[19] = peptide treatment concentration 4 μg/ml
[20] = peptide treatment concentration 6 μg/ml
[21] = peptide treatment concentration 8 μg/ml
[22] = peptide treatment concentration 16 μg/ml
[23] = peptide treatment concentration 32 μg/ml
[24] = peptide treatment concentration 64 μg/ml
[25] = linezolid 64 μg/ml (Conc./MIC 1/8)
[26] = linezolid 512 μg/ml (Conc./MIC 1)
[27] = vancomycin 512 μg/ml (Conc./MIC 1/2)
[28] = vancomycin 1024 μg/ml (Conc./MIC 1)
[29] = erythromycin 4 μg/ml (Conc./MIC 1/8)
[30] = erythromycin 8 μg/ml (Conc./MIC 1/4)
[31] = erythromycin 16 μg/ml (Conc./MIC 1/2)
[32] = erythromycin 32 μg/ml (Conc./MIC 1)

CC[C@H](C)[C@H](NC(=O)[C@H](CCCCN)NC(=O)[C@H](Cc1c[nH]c2ccccc12)NC(=O)[C@@H](N)CCCNC(=N)N)C(=O)N[C@@H](Cc1ccccc1)C(=O)N[C@@H](CCCCN)C(=O)N[C@@H](CCCCN)C(=O)N[C@H](C(=O)N1CCC[C@H]1C(=O)N[C@@H](CCCCN)C(=O)N[C@@H](Cc1ccccc1)C(=O)N[C@@H](CC(C)C)C(=O)N[C@@H](Cc1c[nH]cn1)C(=O)N[C@@H](CCC(=O)O)C(=O)N[C@@H](C)C(=O)N[C@@H](CCCCN)C(=O)N[C@@H](CCCCN)C(=O)N[C@@H](Cc1c[nH]c2ccccc12)C(N)=O)[C@@H](C)CC [PapMA-14, RWK IFK KIP KFL HEA KKW-NH2] (H-RWKIFKKIPKFLHEAKKW-NH2; N-terminus assumed)
16 µg/mL: Minimal inhibitory concentration MIC (A. baumannii [1]) | Peptide MIC, peptide alone (A. baumannii [1]) | Minimal inhibitory concentration MIC (MDRAB 12035 [2]) | Peptide MIC, peptide alone (MDRAB 12035 [2]) | Minimal inhibitory concentration MIC (MDRST 8007) | Antibiotic MIC, Vancomycin (E. coli [3]; vancomycin combined with peptide at 4 μg/ml) | Antibiotic MIC, Erythromycin (A. baumannii [4]; [9]) | Erythromycin MIC during combined treatment with peptide (MDRAB 12035 [5]; [17]) | Linezolid MIC during combined treatment with peptide (MDRAB 12035 [5]; [19]) | Vancomycin MIC during combined treatment with peptide (MDRAB 12035 [5]; [19])
8 µg/mL: Antibiotic MIC, Linezolid (E. coli [3]; linezolid combined with peptide at 4 μg/ml) | Antibiotic MIC, Vancomycin (E. coli [3]; vancomycin combined with peptide at 6 μg/ml) | Antibiotic MIC, Erythromycin (A. baumannii [4]; [10]) | Antibiotic MIC, Linezolid (A. baumannii [4]; [11]) | Antibiotic MIC, Vancomycin (A. baumannii [4]; [11]) | Erythromycin MIC during combined treatment with peptide (MDRAB 12035 [5]; [18])
at least twice as high: Antibacterial activity relative to PapMA-1 (A. baumannii [1]; A. baumannii and S. typhimurium)
>128 µg/mL: Minimal inhibitory concentration MIC (S. epidermidis) | Antibiotic MIC, Linezolid (E. coli [3]; linezolid combined with peptide at 1 μg/ml) | Antibiotic MIC, Vancomycin (E. coli [3]; vancomycin combined with peptide at 1 μg/ml) | Antibiotic MIC, Vancomycin (A. baumannii [4]; [9]) | Vancomycin MIC during combined treatment with peptide (MDRAB 12035 [5]; [17])
64 µg/mL: Minimal inhibitory concentration MIC (P. aeruginosa) | Antibiotic MIC, Vancomycin (A. baumannii [4]; [10]) | Linezolid MIC during combined treatment with peptide (MDRAB 12035 [5]; [18]) | Vancomycin MIC during combined treatment with peptide (MDRAB 12035 [5]; [18])
1 µg/mL: Antibiotic MIC, Erythromycin (E. coli [3]; erythromycin combined with peptide at 6 μg/ml) | Antibiotic MIC, Linezolid (A. baumannii [4]; [12]) | Antibiotic MIC, Vancomycin (A. baumannii [4]; [13]) | Erythromycin MIC during combined treatment with peptide (MDRAB 12035 [5]; [20]) | Linezolid MIC during combined treatment with peptide (MDRAB 12035 [5]; [21]) | Vancomycin MIC during combined treatment with peptide (MDRAB 12035 [5]; [21]) | Peptide MIC during treatment with antibiotic (MDREC 1229; erythromycin […] (Conc./MIC 1/2)) | Peptide MIC during treatment with antibiotic (MDREC 1229; linezolid […] (Conc./MIC 1/2)) | Peptide MIC during treatment with antibiotic (MDREC 1229; [28]) | Peptide MIC during treatment with antibiotic (A. baumannii [7]; [31]) | Peptide MIC during treatment with antibiotic (A. baumannii [7]; linezolid […] (Conc./MIC 1/2)) | Peptide MIC during treatment with erythromycin (MDRAB 12035 [8]; [31]) | Peptide MIC during treatment with linezolid (MDRAB 12035 [8]; linezolid […] (Conc./MIC 1/2)) | Peptide MIC during treatment with linezolid (MDRAB 12035 [8]; linezolid […] (Conc./MIC 1/4)) | Peptide MIC during treatment with vancomycin (MDRAB 12035 [8]; [27]) | Peptide MIC during treatment with vancomycin (MDRAB 12035 [8]; [28])
0.5 µg/mL: Antibiotic MIC, Erythromycin (A. baumannii [4]; [12]) | Antibiotic MIC, Linezolid (A. baumannii [4]; [13]) | Erythromycin MIC during combined treatment with peptide (MDRAB 12035 [5]; [21]) | Peptide MIC during treatment with antibiotic (A. baumannii [7]; vancomycin […] (Conc./MIC 1/4))
0.25 µg/mL: Antibiotic MIC, Erythromycin (A. baumannii [4]; [13]) | Peptide MIC during treatment with antibiotic (A. baumannii [7]; [27])
4 µg/mL: Erythromycin MIC during combined treatment with peptide (MDRAB 12035 [5]; [19]) | Linezolid MIC during combined treatment with peptide (MDRAB 12035 [5]; [20]) | Vancomycin MIC during combined treatment with peptide (MDRAB 12035 [5]; [20]) | Peptide MIC during treatment with antibiotic (MDREC 1229; [25]) | Peptide MIC during treatment with antibiotic (MDREC 1229; vancomycin […] (Conc./MIC 1/4)) | Peptide MIC during treatment with antibiotic (MDREC 1229; vancomycin […] (Conc./MIC 1/8)) | Peptide MIC during treatment with antibiotic (A. baumannii [7]; [29]) | Peptide MIC during treatment with erythromycin (MDRAB 12035 [8]; [29])
0 µg/mL: Antibiotic MIC, Erythromycin (E. coli [3]; erythromycin combined with peptide at 8 μg/ml) | Antibiotic MIC, Erythromycin (E. coli [3]; erythromycin combined with peptide at 16 μg/ml) | Antibiotic MIC, Erythromycin (E. coli [3]; erythromycin combined with peptide at 32 μg/ml) | Antibiotic MIC, Erythromycin (E. coli [3]; erythromycin combined with peptide at 64 μg/ml) | Antibiotic MIC, Linezolid (E. coli [3]; linezolid combined with peptide at 8 μg/ml) | Antibiotic MIC, Linezolid (E. coli [3]; linezolid combined with peptide at 16 μg/ml) | Antibiotic MIC, Linezolid (E. coli [3]; linezolid combined with peptide at 32 μg/ml) | Antibiotic MIC, Linezolid (E. coli [3]; linezolid combined with peptide at 64 μg/ml) | Antibiotic MIC, Vancomycin (E. coli [3]; vancomycin combined with peptide at 8 μg/ml) | Antibiotic MIC, Vancomycin (E. coli [3]; vancomycin combined with peptide at 16 μg/ml) | Antibiotic MIC, Vancomycin (E. coli [3]; vancomycin combined with peptide at 32 μg/ml) | Antibiotic MIC, Vancomycin (E. coli [3]; vancomycin combined with peptide at 64 μg/ml) | Antibiotic MIC, Erythromycin (A. baumannii [4]; [14]) | Antibiotic MIC, Linezolid (A. baumannii [4]; [14]) | Antibiotic MIC, Vancomycin (A. baumannii [4]; [14]) | Antibiotic MIC, Erythromycin (A. baumannii [4]; [15]) | Antibiotic MIC, Linezolid (A. baumannii [4]; [15]) | Antibiotic MIC, Vancomycin (A. baumannii [4]; [15]) | Antibiotic MIC, Erythromycin (A. baumannii [4]; [16]) | Antibiotic MIC, Linezolid (A. baumannii [4]; [16]) | Antibiotic MIC, Vancomycin (A. baumannii [4]; [16]) | Erythromycin MIC during combined treatment with peptide (MDRAB 12035 [5]; [22]) | Linezolid MIC during combined treatment with peptide (MDRAB 12035 [5]; [22]) | Vancomycin MIC during combined treatment with peptide (MDRAB 12035 [5]; [22]) | Erythromycin MIC during combined treatment with peptide (MDRAB 12035 [5]; [23]) | Linezolid MIC during combined treatment with peptide (MDRAB 12035 [5]; [23]) | Vancomycin MIC during combined treatment with peptide (MDRAB 12035 [5]; [23]) | Erythromycin MIC during combined treatment with peptide (MDRAB 12035 [5]; [24]) | Linezolid MIC during combined treatment with peptide (MDRAB 12035 [5]; [24]) | Vancomycin MIC during combined treatment with peptide (MDRAB 12035 [5]; [24]) | Peptide MIC (E. coli [6]; with Erythromycin […] (Conc./MIC 1)) | Peptide MIC (E. coli [6]; with Linezolid […] (Conc./MIC 1)) | Peptide MIC (E. coli [6]; with Vancomycin 1024 μg/ml (Conc./MIC 1)) | Peptide MIC during treatment with antibiotic (MDREC 1229; erythromycin […] (Conc./MIC 1)) | Peptide MIC during treatment with antibiotic (MDREC 1229; [26]) | Peptide MIC during treatment with antibiotic (A. baumannii [7]; [32]) | Peptide MIC during treatment with antibiotic (A. baumannii [7]; linezolid […] (Conc./MIC 1)) | Peptide MIC during treatment with antibiotic (A. baumannii [7]; [28]) | Peptide MIC during treatment with erythromycin (MDRAB 12035 [8]; [32]) | Peptide MIC during treatment with linezolid (MDRAB 12035 [8]; [26])
2 µg/mL: Antibiotic MIC, Erythromycin (E. coli [3]; erythromycin combined with peptide at 4 μg/ml) | Antibiotic MIC, Linezolid (E. coli [3]; linezolid combined with peptide at 6 μg/ml) | Antibiotic MIC, Erythromycin (A. baumannii [4]; [11]) | Antibiotic MIC, Vancomycin (A. baumannii [4]; [12]) | Peptide MIC during treatment with antibiotic (MDREC 1229; erythromycin 32 μg/ml (Conc./MIC 1/8)) | Peptide MIC during treatment with antibiotic (MDREC 1229; erythromycin 64 μg/ml (Conc./MIC 1/4)) | Peptide MIC during treatment with antibiotic (MDREC 1229; linezolid […] (Conc./MIC 1/4)) | Peptide MIC during treatment with antibiotic (MDREC 1229; [27]) | Peptide MIC during treatment with antibiotic (A. baumannii [7]; [30]) | Peptide MIC during treatment with antibiotic (A. baumannii [7]; linezolid 32 μg/ml (Conc./MIC 1/8)) | Peptide MIC during treatment with antibiotic (A. baumannii [7]; linezolid 64 μg/ml (Conc./MIC 1/4)) | Peptide MIC during treatment with antibiotic (A. baumannii [7]; vancomycin […] (Conc./MIC 1/8)) | Peptide MIC during treatment with erythromycin (MDRAB 12035 [8]; [30]) | Peptide MIC during treatment with linezolid (MDRAB 12035 [8]; [25]) | Peptide MIC during treatment with vancomycin (MDRAB 12035 [8]; vancomycin […] (Conc./MIC 1/4)) | Peptide MIC during treatment with vancomycin (MDRAB 12035 [8]; vancomycin […] (Conc./MIC 1/8))
32 µg/mL: Antibiotic MIC, Erythromycin (E. coli [3]; erythromycin combined with peptide at 2 μg/ml) | Antibiotic MIC, Linezolid (A. baumannii [4]; [10])
higher level than the PapMA-1 peptide: Synergistic effect of antibacterial activity with existing antibiotics compared with PapMA-1 (E. coli [3]; E. coli and MDREC1229) | Synergistic effect of antibacterial activity with existing antibiotics compared with PapMA-1 (A. baumannii [4]; A. baumannii and MDRAB 12035)
128 µg/mL: Antibiotic MIC, Erythromycin (E. coli [3]; erythromycin combined with peptide at 1 μg/ml) | Antibiotic MIC, Linezolid (E. coli [3]; linezolid combined with peptide at 2 μg/ml) | Antibiotic MIC, Vancomycin (E. coli [3]; vancomycin combined with peptide at 2 μg/ml) | Antibiotic MIC, Linezolid (A. baumannii [4]; [9]) | Linezolid MIC during combined treatment with peptide (MDRAB 12035 [5]; [17])
